Measurements published in BigSolDB 2.1.

CC(=O)Nc1ccc(O)cc1
Conditions | solubility (mole fraction)
in acetone, 292.95 K | 0.0327
in acetone, 302.85 K | 0.0411
in acetone, 311.95 K | 0.0534
in acetone, 320.65 K | 0.068
in ethanol, 295.15 K | 0.0549
in ethanol, 305.35 K | 0.0662
in ethanol, 314.15 K | 0.0737
in ethanol, 322.15 K | 0.0898
in ethanol, 332.95 K | 0.116
in ethanol, 341.25 K | 0.141
in ethanol, 350.05 K | 0.18
in ethanol, 360.15 K | 0.216
in isopropanol, 293.65 K | 0.0415
in isopropanol, 304.05 K | 0.0509
in isopropanol, 313.05 K | 0.0604
in isopropanol, 320.25 K | 0.0696
in isopropanol, 325.35 K | 0.0787
in isopropanol, 330.25 K | 0.0876
in isopropanol, 336.15 K | 0.105
in isopropanol, 343.45 K | 0.121
in isopropanol, 348.15 K | 0.136
in isopropanol, 353.05 K | 0.152
in isopropanol, 356.15 K | 0.159
in methanol, 293.45 K | 0.0594
in methanol, 303.55 K | 0.073
in methanol, 313.95 K | 0.0906
in methanol, 323.35 K | 0.111
in methanol, 330.95 K | 0.133
in methanol, 341.55 K | 0.175
in methanol, 354.15 K | 0.229
in n-butanol, 293.05 K | 0.0364
in n-butanol, 302.95 K | 0.0439
in n-butanol, 312.55 K | 0.0526
in n-butanol, 323.05 K | 0.0659
in n-butanol, 332.55 K | 0.0792
in n-butanol, 343.65 K | 0.099
in n-butanol, 353.15 K | 0.126
in n-butanol, 362.65 K | 0.152
in n-pentanol, 303.55 K | 0.038
in n-pentanol, 313.85 K | 0.0468
in n-pentanol, 323.65 K | 0.0571
in n-pentanol, 333.65 K | 0.073
in n-pentanol, 343.55 K | 0.0893
in n-pentanol, 353.75 K | 0.108
in n-pentanol, 361.55 K | 0.129
in n-propanol, 293.05 K | 0.0412
in n-propanol, 302.95 K | 0.0501
in n-propanol, 312.55 K | 0.061
in n-propanol, 322.55 K | 0.0735
in n-propanol, 332.25 K | 0.093
in n-propanol, 342.15 K | 0.117
in n-propanol, 351.25 K | 0.142
in n-propanol, 359.15 K | 0.165
